Data reported in patent publication US9193699B2, “Apoptosis inducing compounds” (INSTITUT NATIONAL DE LA SANTE ET DE LA RECHERCHE MEDICALE …, priority 2011, dated 2015).
Read-outs that look alike come from different tables or passages of the source.

Legend:
Assay type in all cases: cell-based
[1] = tested on: Human breast tumor SUM149 cells; experiment: Inhibition of tumor cell growth (alamar blue), SUM149; settings: 120 h
Method: All biological experiments (Examples 2 to 9) have been performed with recommended cell line specific culture medium. For SUM149 and L226, culture medium is supplemented with 10% Fetal Calf Serum. For HME-1 and MCF-10A, culture medium is supplemented with 5% Horse Serum.
Human breast tumor SUM149 cells (Inflammatory Breast Cancer (IBC) of basal subtype) were plated in a 96 well plate at 3000 cells/100 μL at 37° C. in 5% CO2. Compounds 1, 3, 4, 5, 6, 7, 8, 9, 10, 11, 12, 13, 14 at 10 μM were added at day 0 and day 3. The number of viable cells was determined in triplicate at day 5 by incubating 10 μL of the alamar blue staining solution for 2 hours at 37° C. (FIG. 1).
Human breast tumor SUM149 cells were plated in a 96 well plate at 3000 cells/100 μL at 37° C. in 5% CO2. Serial dilutions of drugs (compounds 1, 3 or 4) ranging from 20 μM to 300 nM were added at day 0 and day 3. The number of viable cells was determined in triplicate at day 5 by incubating 10 μL of the alamar blue staining solution for 2 hours at 37° C. (FIG. 2).
IC50 values of compounds 1-14 for the inhibition of SUM149 and L226 tumor cells growth were measured (according to the experimental procedure of Examples 2 and 3):
Human breast tumor SUM149 cells were plated in a 96 well plate at 3000 cells/100 μL at 37° C. in 5% CO2 in recommended medium containing 10% FCS or in synthetic medium without FCS. Serial dilutions of drug (compound 4) ranging from 10 μM to 0.16 μM were added at day 0 and day 3. The number of viable cells was determined in triplicate at day 5 by incubating 10 μL of the alamar blue staining solution for 2 hours at 37° C. (FIG. 11). The […] in recommended medium containing 10% FCS was measured at 2 μM, while it was measured at 0.6 μM without FCS.

[2] = tested on: Thirty eight validated cells lines; experiment: High throughput cell growth analysis on cell line panel; settings: panel of cell lines
Method: Thirty eight validated cells lines, including BXPC3 cells, DU145 cells, OPM2 cells, U-2-OS cells, PLCPRF5 cells, A549 cells, SUM149 cells, HepG2 cells, L389 cells, HGC27 cells, TOV-112D cells, Messa cells, Karpas 299 cells, A498 cells, HCT-116 cells, H1299 cells, Hep2 cells, DLD1 cells, HUT78 cells, AGS cells, A4573 cells, ACHN cells, Panc-1 cells, A375 cells, BT-20 cells, L226 cells, MDAMB231 cells, U118 cells, PC-3 cells, SW579 cells, CLS354-4 cells, Calu-6 cells, U87MG cells, MeWO cells, HUVEC, HME-1 cells, MCF10-A cells and fibroblasts, were plated at 3000 cells/100 μL at 37° C. in 5% CO2 in recommended medium containing 10% FCS.
Compounds 12, 4, 11, 3, 13, 6, 8, 14, 1 and 7, described in the above examples, and DMSO as a control, were tested at various concentrations and % inhibition of cell growth at 10 μM was more particularly studied.

[3] = tested on: Cancer stem cells (CSCs); experiment: Aldefluor assay of cancer stem cells (ALDH+ cells), FACS
Method: Cancer stem cells (CSCs) are thought to contribute to tumor initiation, maintenance, resistance to therapy, and metastasis progression. Treatment with drugs enrich in resistant CSCs. In vitro, breast CSCs express high level of aldehyde dehydrogenase-1 (ALDH1), which can be detected by using a commercial assay (CSCs are “Aldefluor” positive). Briefly, cells were incubated in Aldefluor assay buffer containing ALDH substrate (BAAA (BODIPY®—aminoacetaldehyde), 1 μmol/L per 1×10^6 cells). Negative control was done in the presence of diethylaminobenzaldehyde (DEAB), a specific ALDH inhibitor. Cells were then incubated for 40 min at 37° C. Cells were analyzed with the LSRII flow cytometer (Becton-Dickinson). PI (Propidium Iodide) exclusion was used to gate viable cells.

[4] = tested on: Human breast tumor SUM149 cells; experiment: Annexin V/7-AAD apoptosis with or without Z-VAD-FMK; settings: 2.5 to 20 μM, 48 h, with Z-VAD-FMK pan-caspases inhibitor
Method: Human breast tumor SUM149 cells were plated in dishes at a concentration of 10^6 cells/[…] Cells were treated with compound 3 or compound 4 (2.5 to 20 μM) for 48 h, with or without Z-VAD-FMK, a pan-caspases inhibitor. Cells were double stained with annexinV-FITC and 7-AAD to measure cell apoptosis.

[5] = calculated on the basis of cell growth inhibition, day 5, alamar blue, read-out: IC50 for the inhibition of SUM149 tumor cells growth

IC50 [1, 5] [µM]	IC50 ([1]; recommended medium containing 10% FCS, day 5, read-out: IC50 of SUM149 cell growth in recommended medium) [µM]	IC50 ([1]; synthetic medium without FCS, day 5, read-out: IC50 of SUM149 cell growth without FCS) [µM]	SMILES	cell lines studied that were sensitive [2] [%]	IC50 ([2]; recommended medium containing 10% FCS, read-out: IC50 of cell growth inhibition on cell line panel) [µM]	pool of CSC (ALDH+ cells) after treatment ([3]; 0.6 μM, DMSO control 2.6%) [%]	aldefluor ratio (percent ALDH+ cells treated vs DMSO) ([3]; FIG. 12B)	effect of Z-VAD treatment on compound induced apoptosis (Annexin V positive cells) [4]
2.5	–	–	Cc1c(C)c(C)c(S(=O)(=O)N2CCSC(C)(C)[C@@H]2C(=O)NO)c(C)c1C [Compound 12, (3S)—N-hydroxy-4-[(2,3,4,5,6-pentamethylphenyl)sulfonyl]-2,2-dimethyl-3-thiomorpholine carboxamide]	86	< 1	0.4	reduces the aldefluor ratio	–
2.5	2	0.6	Cc1cc(C)c(C)c(S(=O)(=O)N2CCSC(C)(C)[C@@H]2C(=O)NO)c1C [Compound 4, (3S)—N-hydroxy-4-[(2,3,5,6-tetramethylphenyl)sulfonyl]-2,2-dimethyl-3-thiomorpholine carboxamide]	–	–	–	–	fully impaired
